Test results taken from paper PMC6405172, “In vitro activity and mode of action of phenolic compounds on Leishmania donovani” (PLoS Neglected Tropical Diseases, 2019).

Experiments:
Assay type in all cases: cell-based
[1] = system: Leishmania donovani promastigotes; experiment: Parasite growth analysis (trypan blue counting); conditions: IC50 concentrations; for decrease in the number of promastigotes: at 48 hours
Experimental: The dose dependent inhibition of phenolic compounds on promastigotes was determined by culturing promastigotes (2 x 10^5 cells) in freshly prepared M199 medium in the presence and absence of varying concentration of the test compounds, apigenin (IC50, 2x IC50, 4x IC50), rosmarinic acid (IC50, 2x IC50, 4x IC50), amphotericin B (1/2 IC50, IC50) and deferoxamine (IC50, 2x IC50, 4x IC50), for 120 hours. The number of parasites was determined by staining with trypan blue every 24 hours. Quantification of the viable parasites was determined by counting the parasites with the clear cytoplasm (non-stained) using a Neubauer hemocytometer with a cover slip. Three independent experiments were performed, and data expressed as mean ± standard deviation.

[2] = system: Leishmania donovani promastigotes; experiment: Iron content analysis by atomic absorption spectroscopy; conditions: 24 hours; 4x IC50 (amphotericin B IC50)
Experimental: The parasites were then washed twice with 1x PBS and resuspended in 50 μl deionized water. An aliquot (10 μl) of the parasite suspension was used for protein content determination as described by. The remaining parasite sample (40 μl) was digested with HNO3 for 1 hour at 80°C and overnight at 20°C. Cell digestions were stopped by the addition of 30% H2O2 and topped up to 1.5 ml with deionized water. Iron content in digested samples, spent and unused media were measured by atomic absorption spectroscopy using a Perkin Elmer Analyst 300 spectrometer.

[3] = Cytotoxicity of compounds on mammalian cells (MTT); conditions: mouse, Raw 264.7 macrophage cells, Raw 264.7 cells, read-out: Macrophages CC50 (μM) ±SD
Experimental: Raw 264.7 cells were seeded into 96-well plates at (1 x 10^6 cells) in DMEM supplemented with 10% FBS, 100 μg/mL streptomycin, 100 u/mL penicillin-G, 2g/L NaHCO3 and incubated at 37°C for 24 hours in 5% CO2. The cells were treated with 0–50 μg/mL concentrations of the phenolic compounds for 48 hours at 37°C in 5% CO2. Deferoxamine and amphotericin B at 0–50 μg/mL concentrations were used as positive controls. Cell viability was estimated by measuring the mitochondria oxidative activity by MTT assay and absorbance was read at 570 nm using Thermo Scientific Varioskan LUX. Selectivity index (SI) was calculated as the ratio of the CC50 to IC50 values.

[4] = system: Leishmania donovani promastigotes; experiment: Promastigote viability assay (MTT); conditions: for Selectivity Index (CC50/IC50), promastigotes: CC50 Raw 264.7 / IC50 promastigotes; for IC50: Leishmania donovani, MTT, 72 hours at 25°C, read-out: Promastigotes IC50 (μM) ± SD
Experimental: The MTT assay was done as previously described. Briefly, promastigotes (2 x 10^5 cells) were cultured in freshly prepared M-199 medium supplemented with 10% heat inactivated fetal bovine serum in the presence or absence of varying concentrations of the phenolic compounds (0–50 μg/mL) for 72 hours at 25°C. Amphotericin B (0–50 μg/mL) and deferoxamine (0–50 μg/mL) were used as positive controls. After incubation, 5 mg/mL MTT solution was added to the promastigotes in each well and incubated for 3 hours at 25°C. In this assay, the yellow tetrazolium MTT dye was reduced to insoluble formazan crystals (purple color) in living cells using NADH as their reducing agent. Formazan crystals formed after incubation were solubilized with acidified isopropanol and incubated at 37°C for 30 min. The change in color from yellow to purple was read at an absorbance of 570 nm using Thermo Scientific Varioskan LUX. The cell viability and IC50 were determined from the concentration response curve generated using GraphPad Prism 6.0 Software.

| SMILES | decrease in the number of promastigotes [1] [%] | concentration of iron in the spent media [2] [mg/L] | intracellular iron levels in promastigotes [2] [mg/L] | CC50 at 48 h [3] [µM] | Selectivity Index (CC50/IC50), promastigotes [4] | IC50 [4] [µM] | reduction in the number of parasites ([1]; at 24 hours) [%] |
| --- | --- | --- | --- | --- | --- | --- | --- |
| O=C(/C=C/c1ccc(O)c(O)c1)O[C@H](Cc1ccc(O)c(O)c1)C(=O)O [Rosmarinic acid, rosmarinic acid] | 50 | 0.09 | 0.30 | 245.6 ± 0.3 | 15.03 | 16.34 ± 0.1 |  |
| O=c1cc(-c2ccc(O)cc2)oc2cc(O)cc(O)c12 [Apigenin, apigenin] | 50 | 0.11 | 0.1 | 237.9 ± 0.03 | 10.45 | 22.77 ± 0.01 |  |
| CC(=O)N(O)CCCCCNC(=O)CCC(=O)N(O)CCCCCNC(=O)CCC(=O)N(O)CCCCCN [Deferoxamine, deferoxamine, reference compound] | 50 | 0.08 | 0.36 | 26.88 ± 0.02 | 2.60 | 10.35 ± 0.01 |  |
| C[C@@H]1[C@H](O)[C@@H](C)/C=C/C=C/C=C/C=C/C=C/C=C/C=C/[C@H](O[C@@H]2O[C@H](C)[C@@H](O)[C@H](N)[C@@H]2O)C[C@@H]2O[C@](O)(C[C@@H](O)C[C@@H](O)[C@H](O)CC[C@@H](O)C[C@@H](O)CC(=O)O[C@H]1C)C[C@H](O)[C@H]2C(=O)O [Amphotericin B, reference compound] |  | 0.07 | 0.15 | 15.75 ± 0.03 |  | 6.56 ± 0.06 | 90 |
